Test: solvent given as SMILES

In the case of CN1CCN(c2ccc3c4c(cccc24)C(=O)c2ccccc2-3)CC1, the absorption maximum (in C1CCCCC1) is reported as 428.2 nm, the absorption maximum (in C1CCOC1) is reported as 446 nm and the absorption maximum (in C1COCCO1) is reported as 442.8 nm. It also gave an absorption maximum (in CC1COC(=O)O1) of 459 nm, an absorption maximum (in CC#N) of 453.8 nm and an absorption maximum (in CC(C)=O) of 449.6 nm. For the same compound, the absorption maximum (in CCCCCCCCO) was 451 nm, the absorption maximum (in CCCCCO) was 456.4 nm and the absorption maximum (in CCCCO) was 454.6 nm. For the same compound, the absorption maximum (in CCCO) was 455.4 nm, the absorption maximum (in CCO) was 455.4 nm and the absorption maximum (in CCOC(C)=O) was 443 nm. The absorption maximum (in CN(C)C=O) was 454.4 nm, the absorption maximum (in CO) was 456.4 nm and the absorption maximum (in CS(C)=O) was 460.8 nm. It also gave an absorption maximum (in Cc1ccccc1) of 443.8 nm and an absorption maximum (in ClC(Cl)Cl) of 455.4 nm.
Work on CCCCCCN1C(=O)c2cccc3cc(/N=C\c4cnc5ccccc5c4)cc(c23)C1=O yielded an absorption maximum (in ClC(Cl)Cl) of 328 nm.
Compound COc1cc(C=O)cc(-c2[nH]c(=O)n3c2-c2ccccc2C3=O)c1O has an absorption maximum (in CC#N) of 390 nm, an absorption maximum (in CO) of 398 nm and an absorption maximum (in ClCCl) of 390 nm.
CCCCN1C(=O)c2c(Br)c(Br)c3c4c(Br)c(Br)c5c6c(c(Br)c(Br)c(c7c(Br)c(Br)c(c2c37)C1=O)c64)C(=O)N(CCCC)C5=O showed an absorption maximum (in ClC(Cl)Cl) of 538 nm.
For COc1cc2cc(-c3ccc(C(=O)OCOC(C)=O)cc3C(=O)OCOC(C)=O)oc2cc1N1CCOCCOCCN(c2cc3oc(-c4ccc(C(=O)OCOC(C)=O)cc4C(=O)OCOC(C)=O)cc3cc2OC)CCOCCOCC1, the absorption maximum (in O) was 350 nm.
In the case of COc1ccc(/C=C(\C#N)c2nc(-c3ccc(Cl)cc3)cs2)cc1, the absorption maximum (in CC#N) is reported as 373 nm.
With Cc1ccc(C2=C(/C=C/C(=O)OC3CC[C@@]4(C)C(=CC[C@H]5[C@@H]6CC[C@H]([C@H](C)CCCC(C)C)[C@@]6(C)CC[C@@H]54)C3)C(c3ccc(C)cc3)=[N+]3C2=Nc2c(-c4ccc(C)cc4)c(Br)c(-c4ccc(C)cc4)n2[B-]3(F)F)cc1 (stereo not given in full) the absorption maximum (in ClC(Cl)Cl) was 662 nm.
In the case of Nc1ccccc1/C=C/C(F)(F)F, the absorption maximum (in C1CCOC1) is reported as 347 nm.
In the case of CS(=O)(=O)c1ccc(-c2cc3ccc(N)cc3c(=O)o2)cc1, the absorption maximum (in CC(C)=O) is reported as 358 nm, the absorption maximum (in CCCCCCCCO) is reported as 366 nm and the absorption maximum (in CCCCO) is reported as 366 nm. The absorption maximum (in CCCO) was 366 nm, the absorption maximum (in CCOC(C)=O) was 356 nm and the absorption maximum (in CN(C)C=O) was 367 nm. It also gave an absorption maximum (in CO) of 358 nm and an absorption maximum (in ClC(Cl)Cl) of 351 nm.
Compound COc1ccc(C#Cc2c3ccccc3c3n2[B-](F)(F)[N+]2=C(C)C=C(C)C2=C3)cc1 has an absorption maximum (in CCCCCC) of 611 nm, an absorption maximum (in CCCCCCCCO) of 615 nm and an absorption maximum (in CCOC(C)=O) of 610 nm. For the same compound, the absorption maximum (in CN(C)C=O) was 615 nm and the absorption maximum (in ClCCl) was 616 nm.
With CC(C)(C)NC(=O)c1ccc(F)c2ccc3c4ccccc4c4ccccc4c3c12 the absorption maximum (in ClCCl) was 334 nm.
Cc1cccc(C)c1N1C(c2ccccc2)=Cc2cccc[n+]2[B-]1(F)F gave an absorption maximum (in ClCCl) of 397 nm.
In the case of CCCc1ccc(C#Cc2cc(C#Cc3ccc(N(C)C)cc3)c3ccc4c(C#Cc5ccc(N(C)C)cc5)cc(C#Cc5ccc(CCC)cc5)c5ccc2c3c54)cc1, the absorption maximum (in ClCCl) is reported as 488 nm.
Compound CCN(CC)c1cc2oc3cc(O)c(F)cc3c(=O)c2cc1F has an absorption maximum (in CCO) of 379 nm.
Work on Cc1ccc(/C=C/c2nc3ccccc3s2)cc1 yielded an absorption maximum (in C1CCCCC1) of 345 nm and an absorption maximum (in CO) of 345 nm.
In the case of COc1cc2c(cc1C=C(C#N)C#N)c1ccccc1n2C, the absorption maximum (in C1CCOC1) is reported as 423 nm, the absorption maximum (in CC#N) is reported as 422 nm and the absorption maximum (in CCOC(C)=O) is reported as 420 nm. For the same compound, the absorption maximum (in CN(C)C=O) was 428 nm, the absorption maximum (in CO) was 425 nm and the absorption maximum (in CS(C)=O) was 427 nm. The absorption maximum (in Cc1ccccc1) was 425 nm, the absorption maximum (in ClC(Cl)Cl) was 430 nm and the absorption maximum (in ClCCl) was 427 nm.
For F[B-]1(F)n2c(ccc2-c2cccs2)C(c2ccc(Br)cc2)=C2C=CC(c3cccs3)=[N+]21, the absorption maximum (in ClC(Cl)Cl) was 622 nm.
In the case of CC1=C(C)c2cccc3c2c(cc2nc4ccccc4nc23)O1, the absorption maximum (in ClCCl) is reported as 497 nm.
Work on COc1ccc(-n2nc(C(=O)c3ccc(Cl)cc3)c(N3CCCC3)n2)cc1 yielded an absorption maximum (in CC#N) of 381 nm.
In the case of C=C(C)C(CN1C(=O)c2cccc3cccc(c23)C1=O)OO (stereo not given), the absorption maximum (in CCO) is reported as 332 nm.
With CN(C)c1ccc(/C=C/c2ccncn2)cc1 the absorption maximum (in ClCCl) was 393 nm.
O=C(c1ccc2c3c(cccc13)-c1cccc3c1C2CC=C3)c1c(CCc2ccccc2)c2ccc3cccc4c5cccc6ccc1c(c65)c2c34 (stereo not given) showed an absorption maximum (in ClCCl) of 470 nm.
In the case of CCCC1(CCC)c2cc(-c3ccc(C(C)(C)CC)cc3)ccc2-c2ccc(-c3ccc(C(C)(C)CC)cc3)cc21, the absorption maximum (in C1CCCCC1) is reported as 328 nm.
In the case of CC(=O)c1c(N[C@@H](CS)C(=O)O)c2ccc(N(C)C)cc2oc1=O, the absorption maximum (in ClCCl) is reported as 372 nm.
With CC(C)(C)c1ccc2c(c1)c1cc(C(C)(C)C)ccc1n2-c1ccc(C#Cc2ccc(C#Cc3ccc(C=C(C#N)C#N)cc3)cc2)cc1 the absorption maximum (in ClCCl) was 382 nm.
With C(=N\c1ccc(-c2cn3nc(-c4cccs4)sc3n2)cc1)/c1ccc(N(c2ccccc2)c2ccccc2)cc1 the absorption maximum (in ClC(Cl)Cl) was 390 nm.
For CC(=O)OCCN1C(=O)c2cccc3c(Oc4ccccc4C)ccc(c23)C1=O, the absorption maximum (in ClC(Cl)Cl) was 352 nm.
For CC(C)c1cc(C(C)C)c(B2c3ccccc3Oc3cc(N4c5ccccc5C5(c6ccccc6-c6ccccc65)c5ccccc54)ccc32)c(C(C)C)c1, the absorption maximum (in Cc1ccccc1) was 430 nm.
With COc1ccc(-c2cc3oc(=O)cc(C)c3cc2-c2ccc(OC)c(OC)c2)cc1OC the absorption maximum (in C1CCOC1) was 346 nm.
With CC(C)(C)c1ccc2c(c1)c1cc(C(C)(C)C)ccc1n2-c1ccc(C#Cc2ccc(C=C(C#N)C#N)cc2)cc1 the absorption maximum (in CC#N) was 346 nm, the absorption maximum (in CCCCC) was 345 nm and the absorption maximum (in Cc1ccccc1) was 348 nm. For the same compound, the absorption maximum (in ClCCl) was 410 nm.
Work on CC(C)(C(=O)c1ccc(N2c3ccccc3Oc3ccccc32)cc1)C(=O)c1ccc(N2c3ccccc3Oc3ccccc32)cc1 yielded an absorption maximum (in Cc1ccccc1) of 416 nm.
Compound CCCCCCCCN1c2ccc(C#Cc3ccc(F)cc3)cc2Sc2cc(C=O)ccc21 has an absorption maximum (in C1CCOC1) of 378 nm, an absorption maximum (in CC#N) of 380.01 nm and an absorption maximum (in CCCCCC) of 376 nm. It also gave an absorption maximum (in CO) of 350 nm, an absorption maximum (in CS(C)=O) of 388 nm and an absorption maximum (in Cc1ccccc1) of 381.99 nm. The absorption maximum (in ClC(Cl)Cl) was 391.99 nm.
C(=C1c2ccccc2CCc2ccccc21)c1ccc(-c2cc(-c3ccc(C=C4c5ccccc5CCc5ccccc54)cc3)cc(-c3ccc(C=C4c5ccccc5CCc5ccccc54)cc3)c2)cc1 gave an absorption maximum (in C1CCOC1) of 318 nm.
With CCCCCCCCCCC(CCCCCCCCCC)Cn1c2cc(-c3ccc(C(C)(C)C)cc3)c3cccc4c5ccc6c7cc(-c8cc(C(C)(C)C)cc(C(C)(C)C)c8)n8c7c(c7cc1c(c5c76)c2c34)=C1C=CC(c2cc(C(C)(C)C)cc(C(C)(C)C)c2)=[N+]1[B-]8(F)F the absorption maximum (in Cc1ccccc1) was 780 nm.
Work on CC(C)(C)c1ccc(/C=C/c2ccc(N(c3ccc(/C=C/c4ccc(C(C)(C)C)cc4)cc3)c3ccc(-c4nc5ccccc5nc4-c4ccc(N(c5ccc(/C=C/c6ccc(C(C)(C)C)cc6)cc5)c5ccc(/C=C/c6ccc(C(C)(C)C)cc6)cc5)cc4)cc3)cc2)cc1 yielded an absorption maximum (in C1CCOC1) of 375 nm and an absorption maximum (in Cc1ccccc1) of 373 nm.
In the case of CCOC(=O)COc1ccc(/C=C/C2=C3C(C)=CC(C)=[N+]3[B-](F)(F)n3c2c2ccccc2c3-c2[nH]c(C)cc2C)cc1, the absorption maximum (in ClCCl) is reported as 608 nm.
O=[N+]([O-])c1ccc(/C2=C3N=C(C(c4ccccc4)=C/3c3ccccc3)/C(c3ccc([N+](=O)[O-])cc3)=c3\[nH]/c(c(-c4ccccc4)c3-c3ccccc3)=C(/c3ccc([N+](=O)[O-])cc3)C3=N/C(=C(/c4ccc([N+](=O)[O-])cc4)c4[nH]c2c(-c2ccccc2)c4-c2ccccc2)C(c2ccccc2)=C3c2ccccc2)cc1 showed an absorption maximum (in ClCCl) of 711 nm.
Compound COc1ccc(/C=C/c2nc3ccccc3o2)cc1 has an absorption maximum (in C1CCCCC1) of 330 nm and an absorption maximum (in CO) of 340 nm.
Compound CCCCCCCCOc1ccc2c3cccc4c(OCCCCCCCC)ccc(c5cccc1c52)c43 has an absorption maximum (in C1CCOC1) of 460 nm, an absorption maximum (in Cc1ccccc1) of 462 nm and an absorption maximum (in ClC(Cl)(Cl)Cl) of 462 nm. The absorption maximum (in ClC(Cl)Cl) was 462 nm, the absorption maximum (in ClCCl) was 461 nm and the absorption maximum (in c1ccncc1) was 464 nm.
In the case of CCn1c2ccccc2sc2c(C#N)c3oc4ccccc4oc3c(C#N)c21, the absorption maximum (in ClC(Cl)Cl) is reported as 460 nm.
Compound c1ccc(N(c2ccccc2)c2ccc(-c3ccc4c(c3)C3(c5cc(-c6ccc(N(c7ccccc7)c7ccccc7)cc6)ccc5-4)c4ccccc4N(c4ccccc4)c4ccccc43)cc2)cc1 has an absorption maximum (in ClCCl) of 372 nm.
CC(C)(C)NC(=O)c1ccc(-c2cc3ccccc3o2)c2ccc3c4ccccc4c4ccccc4c3c12 gave an absorption maximum (in ClCCl) of 364 nm.
Work on Cc1cc(C)c(C2=C3C=CC=[N+]3[B-]3(c4ccccc4)Oc4cc(O)cc5c6ccc(C)cc6c6cc2n3c6c45)c(C)c1 (stereo not given) yielded an absorption maximum (in ClC(Cl)Cl) of 643 nm.
Compound COc1ccc(C2=N/C(=C\c3ccc(C#N)cc3)C(=O)N2)cc1OC has an absorption maximum (in C1COCCO1) of 405 nm.
Compound CCCCCCOc1cc(C=C2C(=C(C#N)C#N)c3ccccc3C2=C(C#N)C#N)c(OCCCCCC)cc1C=C1C(=C(C#N)C#N)c2ccccc2C1=C(C#N)C#N has an absorption maximum (in ClCCl) of 542 nm.
With CCCCCCn1c(=O)c2c3[nH]c4cc5sc6c([nH]c5cc4sc3c3c(=O)n(CCCCCC)c(=O)c3c2c1=O)c1c(=O)n(CCCCCC)c(=O)c1c1c(=O)n(CCCCCC)c(=O)c61 the absorption maximum (in ClCCl) was 549 nm.
Compound Nc1cc(F)c(C(=O)c2cc(F)c(F)cc2F)cc1F has an absorption maximum (in CCO) of 335 nm.
In the case of c1ccc(N(c2ccccc2)c2ccc(-c3ccc(-c4ccc(-c5cccs5)c5nsnc45)s3)cc2)cc1, the absorption maximum (in ClC(Cl)Cl) is reported as 495 nm.
In the case of C[n+]1cc2ccc3c[n+](C)cc4ccc(c1)c2c34, the absorption maximum (in CC#N) is reported as 418 nm.
Compound CCn1c2ccccc2c2c(C#N)c3c(ccc4c3cnn4C)nc21 has an absorption maximum (in CCOC(C)=O) of 383 nm.
With COc1ccc(C2=Cc3ccccc3[Si]2(c2ccccc2)c2ccccc2)cc1 the absorption maximum (in ClCCl) was 350 nm.
In the case of CC1(C)c2ccccc2N(c2ccc(-c3cccc(C#N)c3)cc2)c2ccccc21, the absorption maximum (in Cc1ccccc1) is reported as 344 nm.
With c1ccc(N(c2ccccc2)c2ccc(-n3ccc4cc(-c5ccc(C6(c7ccccc7)c7ccccc7-c7ccccc76)cc5)ccc43)cc2)cc1 the absorption maximum (in ClCCl) was 308 nm.
CNc1cc2nc3cc(Cl)c(Cl)cc3nc2cc1NC showed an absorption maximum (in CCO) of 442 nm.
O=c1ccc2cc3ccoc3cc2o1 gave an absorption maximum (in CC(C)O) of 298 nm, an absorption maximum (in CCO) of 299 nm and an absorption maximum (in CCOCC) of 294 nm. For the same compound, the absorption maximum (in CO) was 300 nm and the absorption maximum (in O) was 303 nm.
In the case of CCn1c2cc(-c3cccs3)ccc2c2ccc(-c3cccs3)cc21, the absorption maximum (in ClCCl) is reported as 370 nm.
In the case of c1ccc2cc3c4c(ccc3cc2c1)-c1cccc2cccc-4c12, the absorption maximum (in CCCCCCC) is reported as 407 nm.

— the Deep4Chem optical property database
